Measurements from patent US20060167109A1, “Methods of reducing rhinovirus contagion and related compositions” (priority 2002, published 2006).
≈ marks a conversion by molar mass, not a printed value. Where two headings read alike, the source gives them in different places.

Legend:
Aqueous solubility = type: physicochemical
[1] = Single dose oral pharmacokinetics in fed healthy young subjects; type: in vivo, human; settings: for half-life: po, 400 mg
[2] = test system: 10 other human viral pathogens; test: Antiviral specificity, viral cytopathic effect assays; type: cell-based
HRV-14 = test: Attachment inhibition, 35S-radiolabeled virus; type: cell-based, human rhinovirus; settings: HRV-14, ICAM-1 receptor, FIG. 5
Procedure: (§1) The ability of pleconaril to affect the attachment to cells of several HRV serotypes was examined. ^35S-radiolabeled virus was incubated with susceptible cells for 1 hour in the presence of various concentrations of pleconaril. Cell-associated virus was quantified by direct scintillation counting of cell lysates after removal of unbound virus.
(§2) ^35S-radiolabeled virus was preincubated with various concentrations of pleconaril or 0.5% DMSO alone for 1 hour at room temperature. Cells in 6 well plates were inoculated with 20,000 cpm of ^35S-radiolabeled virus/well in 0.5 mL of M199 medium with 5% FBS. Attachment was allowed to proceed for 1 hour at 33° C., at which time the inoculum was removed and the cells washed with 2 mL of medium. The cells were then lysed by a 15 minute incubation on ice in the presence of 250 μL/well of a solution containing detergent 1% Nonident P40 (NP40) and 20 mM chelator, ethylene diamine tetraacetic acid (EDTA) in water. Cell-associated radioactivity was quantified by liquid scintillation spectroscopy in a Wallac Model 1409 Liquid Scintillation Counter (Wallac Oy, Turku, Finland).

HRV-1A = test: Attachment inhibition, 35S-radiolabeled virus; type: cell-based, human rhinovirus; settings: LDL receptor, HeLa cells
Procedure: as §1, §2

HRV-2 = test: Attachment inhibition, 35S-radiolabeled virus; type: cell-based, human rhinovirus; settings: HRV-2, LDL receptor, HeLa cells
Procedure: as §1, §2

HRV-3 = test: Attachment inhibition, 35S-radiolabeled virus; type: cell-based, human rhinovirus; settings: HRV-3, ICAM-1 receptor, FIG. 5
Procedure: as §1, §2

HRV-50 = test: Attachment inhibition, 35S-radiolabeled virus; type: cell-based, human rhinovirus; settings: HRV-50, ICAM-1 receptor, FIG. 5
Procedure: as §1, §2

HRV-89 = test: Attachment inhibition, 35S-radiolabeled virus; type: cell-based, human rhinovirus; settings: HRV-89, ICAM-1 receptor, FIG. 5
Procedure: as §1, §2

HRV3 [3] = test: RNA replication, viral RNA synthesis; type: cell-based, human rhinovirus; settings: 2 μM, pleconaril-treated cells
Procedure: Immediately after uncoating, viral gene expression (protein translation) and viral RNA replication begin. However, uncoating must occur before either of these two processes can be initiated. In experiments conducted similarly to the uncoating experiment described above, an experiment was conducted to measure viral RNA synthesis in the presence and absence of pleconaril. At the end of the 2 hours temperature shift, actinomycin D was added to the culture medium to inhibit cellular DNA-dependent RNA synthesis. After 2 hours in the presence of actinomycin D, no cellular RNA synthesis was detectable. At that time, ^3H-uridine was added to the medium and the incubation was allowed to proceed 2.5 hours (a total of 6.5 hours post-attachment). Total cellular RNA was then recovered, electrophoresed on an agarose-urea gel and visualized by fluorography.
HeLa cells in 6 well plates were infected at an MOI of 5 PFU/cell with 1 mL of HRV3 for 1 hour at room temperature in the presence or absence of 2 μM pleconaril. After virus attachment, the incubation was continued for an additional 2 hrs at 33° C. (HRV3). The inoculum was then removed and 3 mL/well of M199 medium with 5% FBS and 5 μg/mL of actinomycin D was added with 2 μM pleconaril or DMSO only (0.5% final concentration). The cells were returned to the incubator for 2 hours, at which time 300 μCi of ^3H-uridine (Amersham) was added per well. […]

HRV3 [4] = test: Multiple rounds of replication; type: cell-based, human rhinovirus; settings: 2 μM added four hours post-attachment
Procedure: The next experiments were designed to answer the question as to whether the addition of pleconaril after the uncoating stage could affect the ability of progeny virions to initiate subsequent rounds of replication, i.e. reduce the infectivity of progeny virions. Cells were infected with HRV3 at a low MOI (0.01 pfu/cell) at room temperature. After removal of unattached virus, fresh medium was added and the cells were shifted to the higher temperature to allow uncoating to proceed. Four hours post-attachment, pleconaril or DMSO alone was added to the cultures, and plates were frozen at 12 hours (upon completion of a single cycle of replication) and 24 hours (upon completion of a second round of replication) post-infection. Virus yield from both rounds of replication was determined in the viral cytopathic effect assay.
HeLa cells in 6 well plates were infected with HRV3 at an MOI of 0.001 or 0.01 pfu/cell for 1 hour at room temperature in duplicate. The virus inoculum was then removed and the monolayers washed twice with DPBS. The cells were overlaid with 3 mL of M199 medium with 5% FBS and placed at 33° C. (HRV3). After 4 hrs, half of the wells received pleconaril to a final concentration of 2 μM in 0.5% DMSO, and half received DMSO alone. […] Virus yield was determined in the cytopathic effect assay after 2 cycles of chloroform extraction.

[5] = Clinical pharmacokinetics: food effect, linearity, renal excretion; type: in vivo, human
Procedure: Pleconaril was administered with food in all Phase II and III clinical studies conducted by Applicants.
Pleconaril has a volume of distribution (Vz/F) that is consistent with significant tissue distribution despite the fact that pleconaril is highly bound (>99%) to plasma protein. Pleconaril is a low systemic clearance drug. Renal clearance contributes insignificantly to the systemic clearance of pleconaril. Less than 1% of the dose is excreted unchanged as pleconaril in urine.

[6] = human, plasma, fed healthy young subjects (N = 24), single oral dose 400 mg, mean

Cc1cc(CCCOc2c(C)cc(-c3noc(C(F)(F)F)n3)cc2C)on1 [pleconaril, 3-[3,5-dimethyl-4-[3-(3-methyl-5-isoxazolyl)propoxy]phenyl]-5-(trifluoromethyl)-1,2,4-oxadiazole]
solubility (Aqueous solubility): 0.02 µg/mL (≈ 0.0524 µM)
CL/F ([1]; fed healthy young subjects (N = 24), single oral dose 400 mg, mean): 16.8 L/h
alpha half-life ([1]; following oral absorption, alpha disposition phase): ~2.8 h
half-life ([1]; human, plasma, fed healthy young subjects (N = 24), single oral dose 400 mg, mean, read-out: T1/2 (converted)): 186 h
half-life ([1]; human, plasma, following oral absorption, alpha disposition phase, read-out: alpha half-life): 2 to 3 h
half-life ([1]; human, plasma, following oral absorption, read-out: terminal half-life (converted)): ~180 h
AUC(0-inf) [1, 6]: 29200 ng·h/mL
Cmax [1, 6]: 2300 ng/mL
Tmax [1, 6]: 3 h
Vd/F ([1]; human, plasma, fed healthy young subjects (N = 24), single oral dose 400 mg, mean, read-out: Vz/F): 4110 L
activity against unrelated viruses [2]: no activity
IC50 ([2]; Homo sapiens, all ten viruses): > 12.5 µM
attachment of virus to cells (HRV-14): inhibited
attachment of virus to cells (HRV-1A): able to bind to HeLa cells normally
attachment of virus to cells (HRV-2): able to bind to HeLa cells normally
attachment of virus to cells (HRV-3): inhibited
attachment of virus to cells (HRV-50): inhibited
attachment of virus to cells (HRV-89): inhibited
HRV3 RNA synthesis (HRV3 [3]): completely blocked
yield of progeny virions from the first round of virus replication (HRV3 [4]; 12 hours): little effect
second round of replication (HRV3 [4]; 24 hours): completely prevented
pharmacokinetic profile, dose dependence ([5]; plasma concentration range exceeding the proposed regimen by approximately 2-fold): dose proportional and linear
dose excreted unchanged as pleconaril in urine ([5]; urine): Less than 1%
increase of absorption when administered with food ([5]; with food): 3-4 fold
